Assay results published in publication PMC9027532, “Preclinical Pharmacokinetic Studies of a Novel Diuretic Inhibiting Urea Transporters” (Molecules, 2022).
Several values for one entry are separate records, joined by “and”; a condition that tells them apart may be missing. Equal entries are not always repeated. Entries after “also recorded” stand apart in the source; their conditions may differ.

How the values were obtained:
UT-B = tested on: UT-B; set-up: method as in PMID 34601246; settings: rat; read-out: inhibitory effect on UT-B; cited from earlier work
[1] = Pharmacokinetic study in rats (plasma, LC-MS/MS, NCA); settings: for concentration at 0.083 h / concentration at 0.167 h / concentration at 0.25 h / concentration at 0.5 h / concentration at 1 h / concentration at 2 h / concentration at 4 h / concentration at 6 h / concentration at 8 h / concentration at 12 h / concentration at 24 h: Mean plasma concentration
Procedure: Blood samples were collected via orbital venous plexus into tubes with K2–EDTA on the ice at 0.083, 0.167, 0.25, 0.5, 1, 2, 4, 6, 8, 12, and 24 h. […] Blood was collected at 0.033, 0.083, 0.25, 0.5, 1, 2, 3, 4, 6, 12, and 24 h. Plasma was obtained by centrifugation at 3000 rpm for 10 min at 4 °C. […] The plasma and urine samples were stored at −80 °C until analysis. The PK parameters were calculated by DAS 3.2.8 software (Beijing, China) using the noncompartmental analysis (NCA) model. The oral bioavailability (F) was calculated by F = (AUCp.o. × Dosei.v.)/(AUCi.v. × Dosep.o.).

[2] = Excretion experiment in bile duct cannulated rats (bile); format: in vivo, SD rats; settings: single oral dose 100 mg/kg
Procedure: The cumulative excretion ratios of unchanged 25a in the urine, feces, and bile of rats after a single oral dose at 100 mg/kg were 0.14% ± 0.05%, 3.16% ± 0.96%, and 0.018% ± 0.006%, respectively (Figure 6 and Tables S5–S7). […] Further phenotyping and metabolite identification studies should be conducted to elucidate the major elimination forms of 25a in the future.
Four SD rats were adapted in metabolic cages for 3 days in advance and then administrated with 25a at 100 mg/kg orally. Feces and urine were collected and weighed at 0–6 h, 6–12 h, […], 24–36 h, 36–48 h, 48–60 h, and 60–72 h after administration. Parallelly, four SD rats received bile duct cannulation and were given a single dose of 25a at 100 mg/kg orally. Bile was collected and weighed at 0–2 h, 0–4 h, 0–6 h, 0–8 h, 0–10 h, 0–12 h, 0–24 h, 0–36 h, and 0–48 h after administration. All samples were stored at −80 °C until analysis.

[3] = male, Sprague-Dawley, rat, plasma, iv, 1 mg/kg
[4] = male, Sprague-Dawley, rat, plasma, po, 25 mg/kg
[5] = male, Sprague-Dawley, rat, plasma, po, 25 mg/kg, rats, single p.o. 25 mg/kg
[6] = male, Sprague-Dawley, rat, plasma, po, 50 mg/kg
[7] = male, Sprague-Dawley, rat, plasma, po, 50 mg/kg, rats, single p.o. 50 mg/kg
[8] = male, Sprague-Dawley, rat, plasma, po, 100 mg/kg
[9] = male, Sprague-Dawley, rat, plasma, po, 100 mg/kg, rats, multiple p.o. 100 mg/kg, twice per day for 7 days
[10] = male, Sprague-Dawley, rat, plasma, po, 100 mg/kg, rats, single p.o. 100 mg/kg
[11] = male, Sprague-Dawley, rat, plasma, po, 100 mg/kg, rats, multiple p.o. 100 mg/kg

CC(=O)Nc1ccc(NC(=O)c2ccc(C(C)=O)o2)cc1 [Compound 25a, N-(4-acetamidophenyl)-5-acetylfuran-2-carboxamide]
AUC(0-inf) [1, 3]: 0.503 ± 0.124 µg·h/mL
AUC(0-t) [1, 3]: 0.501 ± 0.124 µg·h/mL
C0 [1, 3]: 1.71 ± 0.398 µg/mL
MRT ([1]; male, Sprague-Dawley, rat, plasma, iv, 1 mg/kg, rats, single i.v. 1 mg/kg): 0.6 ± 0.1 h
half-life ([1]; male, Sprague-Dawley, rat, plasma, iv, 1 mg/kg, t1/2, rats, single i.v. 1 mg/kg): 0.89 ± 0.52 h
AUC(0-inf) [1, 4]: 2.53 ± 0.362 µg·h/mL
AUC(0-t) [1, 4]: 2.52 ± 0.395 µg·h/mL
CL/F [1, 5]: 9.9 L/h/kg
Cmax [1, 5]: 0.515 ± 0.107 µg/mL
bioavailability ([1]; male, Sprague-Dawley, rat, plasma, po, 25 mg/kg, F (oral bioavailability), rats, single p.o. 25 mg/kg): 20.1 ± 0.8%
MRT [1, 5]: 5.2 ± 0.4 h
concentration at 0.083 h [1, 5]: 0.282 ± 0.0623 µg/mL
concentration at 0.167 h [1, 5]: 0.431 ± 0.116 µg/mL
concentration at 0.25 h [1, 5]: 0.515 ± 0.122 µg/mL
concentration at 0.5 h [1, 5]: 0.167 ± 0.0335 µg/mL
concentration at 1 h [1, 5]: 0.245 ± 0.0925 µg/mL
concentration at 2 h [1, 5]: 0.206 ± 0.0837 µg/mL
concentration at 4 h [1, 5]: 0.372 ± 0.0743 µg/mL
concentration at 6 h [1, 5]: 0.23 ± 0.0497 µg/mL
concentration at 8 h [1, 5]: 0.102 ± 0.0077 µg/mL
concentration at 12 h [1, 5]: 0.0368 ± 0.0027 µg/mL
concentration at 24 h [1, 5]: 0.0021 ± 0.0013 µg/mL
half-life ([1]; male, Sprague-Dawley, rat, plasma, po, 25 mg/kg, t1/2, rats, single p.o. 25 mg/kg): 2.86 ± 0.29 h
Tmax ([1]; male, Sprague-Dawley, rat, plasma, po, 25 mg/kg, tmax, rats, single p.o. 25 mg/kg): 0.25 h
AUC(0-inf) [1, 6]: 4.74 ± 0.854 µg·h/mL
AUC(0-t) [1, 6]: 4.73 ± 0.854 µg·h/mL
CL/F [1, 7]: 10.5 L/h/kg
Cmax [1, 7]: 0.693 ± 0.26 µg/mL
bioavailability ([1]; male, Sprague-Dawley, rat, plasma, po, 50 mg/kg, F (oral bioavailability), rats, single p.o. 50 mg/kg): 18.9 ± 1.7%
concentration at 0.083 h [1, 7]: 0.236 ± 0.0935 µg/mL
concentration at 0.167 h [1, 7]: 0.38 ± 0.173 µg/mL
concentration at 0.25 h [1, 7]: 0.496 ± 0.211 µg/mL
concentration at 0.5 h [1, 7]: 0.693 ± 0.272 µg/mL
concentration at 1 h [1, 7]: 0.429 ± 0.149 µg/mL
concentration at 2 h [1, 7]: 0.454 ± 0.0976 µg/mL
concentration at 4 h [1, 7]: 0.553 ± 0.0978 µg/mL
concentration at 6 h [1, 7]: 0.383 ± 0.166 µg/mL
concentration at 8 h [1, 7]: 0.271 ± 0.0751 µg/mL
concentration at 12 h [1, 7]: 0.0783 ± 0.0361 µg/mL
concentration at 24 h [1, 7]: 0.0036 ± 0.0011 µg/mL
half-life ([1]; male, Sprague-Dawley, rat, plasma, po, 50 mg/kg, t1/2, rats, single p.o. 50 mg/kg): 2.63 ± 0.2 h
Tmax ([1]; male, Sprague-Dawley, rat, plasma, po, 50 mg/kg, tmax, rats, single p.o. 50 mg/kg): 0.5 h
AUC(0-inf) [1, 8]: 12.1 µg·h/mL
AUC(0-t) [1, 8]: 11.8 µg·h/mL
CL/F [1, 9]: 8.2 L/h/kg
CL/F [1, 10]: 14.4 L/h/kg
Cmax [1, 9]: 1.71 ± 0.185 µg/mL
Cmax [1, 10]: 1.32 ± 0.228 µg/mL
bioavailability ([1]; male, Sprague-Dawley, rat, plasma, po, 100 mg/kg, F (oral bioavailability), rats, multiple p.o. 100 mg/kg, twice per day for 7 days): 23.5 ± 2.3%
bioavailability ([1]; male, Sprague-Dawley, rat, plasma, po, 100 mg/kg, F (oral bioavailability), rats, single p.o. 100 mg/kg): 13.8 ± 0.8%
MRT [1, 9]: 6.5 ± 0.6 h
MRT [1, 10]: 5.3 ± 0.3 h
concentration at 0.083 h [1, 11]: 0.681 ± 0.097 µg/mL
concentration at 0.083 h [1, 10]: 1.08 ± 0.287 µg/mL
concentration at 0.167 h [1, 11]: 0.936 ± 0.102 µg/mL
concentration at 0.167 h [1, 10]: 1.32 ± 0.235 µg/mL
concentration at 0.25 h [1, 11]: 1.09 ± 0.192 µg/mL
concentration at 0.25 h [1, 10]: 1.21 ± 0.196 µg/mL
concentration at 0.5 h [1, 11]: 1.26 ± 0.168 µg/mL
concentration at 0.5 h [1, 10]: 1.03 ± 0.124 µg/mL
concentration at 1 h [1, 11]: 1.41 ± 0.283 µg/mL
concentration at 1 h [1, 10]: 0.734 ± 0.134 µg/mL
concentration at 2 h [1, 11]: 1.71 ± 0.185 µg/mL
concentration at 2 h [1, 10]: 0.687 ± 0.146 µg/mL
concentration at 4 h [1, 11]: 1.08 ± 0.11 µg/mL
concentration at 4 h [1, 10]: 1.13 ± 0.245 µg/mL
concentration at 6 h [1, 11]: 0.717 ± 0.196 µg/mL
concentration at 6 h [1, 10]: 0.835 ± 0.178 µg/mL
concentration at 8 h [1, 11]: 0.494 ± 0.111 µg/mL
concentration at 8 h [1, 10]: 0.596 ± 0.126 µg/mL
concentration at 12 h [1, 11]: 0.245 ± 0.0736 µg/mL
concentration at 12 h [1, 10]: 0.173 ± 0.0367 µg/mL
concentration at 24 h [1, 11]: 0.0281 ± 0.0859 µg/mL
concentration at 24 h [1, 10]: 0.0109 ± 0.0066 µg/mL
half-life ([1]; male, Sprague-Dawley, rat, plasma, po, 100 mg/kg, half-life, rats, single oral doses 25, 50, 100 mg/kg): 2.6 to 3 h
half-life ([1]; male, Sprague-Dawley, rat, plasma, po, 100 mg/kg, t1/2, rats, multiple p.o. 100 mg/kg, twice per day for 7 days): 5.03 ± 0.82 h
Tmax at 7 days ([1]; male, Sprague-Dawley, rat, plasma, po, 100 mg/kg, tmax, rats, multiple p.o. 100 mg/kg, twice per day for 7 days): ~2 h
Tmax ([1]; male, Sprague-Dawley, rat, plasma, po, 100 mg/kg, tmax, rats, single p.o. 100 mg/kg): ~0.17 h
bioavailability ([1]; male, Sprague-Dawley, rat, plasma, po, oral bioavailability, SD rats, oral administration, overall): ≤ 20%
time to reach maximum plasma concentration (Cmax) ([1]; rats, after oral administration): ≤ 0.5 h
V/F ([1]; rats, multiple p.o. 100 mg/kg, twice per day for 7 days): 59.8 ± 11.8 L/kg
bioavailability of 25a relative to lead compound 1H ([1]; rats, oral): approximately fourfold; also recorded: approximately four times higher
V (V/F row) ([1]; rats, single i.v. 1 mg/kg): 2.6 ± 1.4 L/kg
V/F ([1]; rats, single p.o. 25 mg/kg): 40.9 ± 7.4 L/kg
V/F ([1]; rats, single p.o. 50 mg/kg): 40.1 ± 10.8 L/kg
AUC0–∞ ([1]; rats, single p.o. 100 mg/kg): 6.9574 ± 0.3451 µg·h/mL
V/F ([1]; rats, single p.o. 100 mg/kg): 63.0 ± 17.6 L/kg
t1/2 ([1]; rats, single p.o. 100 mg/kg): 3.04 ± 0.70 h
clearance ([1]; read-out: CL (CL/F row), rats, single i.v. 1 mg/kg): 2.1 L/h/kg
Accumulated Amount in bile ([2]; 0-2 h): 0.531 ± 0.233 µg
Concentration in bile ([2]; 0-2 h): 0.2205 ± 0.0444 µg/mL
Accumulated Amount in bile ([2]; 0-4 h): 1.138 ± 0.434 µg
Concentration in bile ([2]; 0-4 h): 0.1923 ± 0.0523 µg/mL
Accumulated Amount in bile ([2]; 0-6 h): 1.451 ± 0.481 µg
Concentration in bile ([2]; 0-6 h): 0.1613 ± 0.0554 µg/mL
Accumulated Amount in bile ([2]; 0-8 h): 1.783 ± 0.489 µg
Concentration in bile ([2]; 0-8 h): 0.1695 ± 0.0572 µg/mL
Accumulated Amount in bile ([2]; 0-10 h): 2.215 ± 0.603 µg
Concentration in bile ([2]; 0-10 h): 0.1568 ± 0.0238 µg/mL
Accumulated Amount in bile ([2]; 0-12 h): 2.888 ± 0.929 µg
Concentration in bile ([2]; 0-12 h): 0.1473 ± 0.0277 µg/mL
Accumulated Amount in bile ([2]; 0-24 h): 3.664 ± 1.010 µg
Concentration in bile ([2]; 0-24 h): 0.0835 ± 0.0199 µg/mL
Accumulated Amount in bile ([2]; 0-36 h): 4.113 ± 1.058 µg
Concentration in bile ([2]; 0-36 h): 0.0407 ± 0.0211 µg/mL
Accumulated Amount in bile ([2]; 0-48 h): 4.300 ± 1.184 µg
Concentration in bile ([2]; 0-48 h): 0.0179 ± 0.0171 µg/mL
cumulative excretion ratio of unchanged 25a in bile ([2]; 100 mg/kg): 0.018% and 0.018% ± 0.006%
